Measured values published in ChEMBL document CHEMBL4033748, “SAR and characterization of non-substrate isoindoline urea inhibitors of nicotinamide phosphoribosyltransferase (NAMPT)” (Bioorg Med Chem Lett, 2017).
Values after ≈ are worked out from the molar mass of the structure shown. Active and inactive are the calls of the source. The calls are words filed in the database; no cut-off is given here.

Experiments:
[1] = molecular target: Nicotinamide phosphoribosyltransferase (Homo sapiens, UniProt P43490)
Description: Inhibition of C-terminal His-tagged human recombinant NAMPT using FK866 or isoindoline urea-based Oregon green (488) probe incubated for 3 hrs by TR-FRET assay

[2] = system: Liver; test: Unbound intrinsic clearance in human liver microsomes at 0.5 uM in presence of NADPH incubated for 5 to 30 mins by HPLC-MS/MS method; type: ADME, microsome
[3] = system: Liver; test: Unbound intrinsic clearance in mouse liver microsomes at 0.5 uM in presence of NADPH incubated for 5 to 30 mins by HPLC-MS/MS method; type: ADME, microsome
[4] = system: PC-3; test: Antiproliferative activity against human PC3 cells assessed as reduction in cell viability incubated for 5 days by Cell-titer Glo reagent based assay; type: functional
[5] = system: ES2; details: Homo sapiens
Description: Antitumor activity against human ES2 cells xenografted in CB17 SCID mouse assessed as tumor growth inhibition

[6] = Aqueous solubility of the compound; type: physicochemical; details: buffer
[7] = molecular target: Cytochrome P450 2C9 (Homo sapiens, UniProt P11712); test: Inhibition of CYP2C9 (unknown origin); type: ADME
[8] = system: NCI-H345; details: Homo sapiens
Description: Antitumor activity against human NCI-H345 cells xenografted in CB17 SCID mouse assessed as tumor growth inhibition

[9] = system: HCT-116; test: Antitumor activity against human HCT116 cells xenografted in CB17 SCID mouse assessed as tumor growth inhibition at 15 mg/kg/day, po dosed daily (3 days on/4 days off per cycle for 3 cycles); type: functional; details: HCT-116, po, 72 h, read-out: TGI
[10] = Oral bioavailability in Sprague-Dawley rat at 5 mg/kg; type: ADME, organism-based; details: in vivo
[11] = system: A2780; details: Homo sapiens
Description: Antitumor activity against human A2780 cells xenografted in CB17 SCID mouse assessed as tumor growth inhibition

[12] = system: Liver; test: Unbound intrinsic clearance in rat liver microsomes at 0.5 uM in presence of NADPH incubated for 5 to 30 mins by HPLC-MS/MS method; type: ADME, microsome
[13] = Plasma clearance in Sprague-Dawley rat at 5 mg/kg, iv; type: ADME, organism-based
[14] = Half life in Sprague-Dawley rat at 5 mg/kg, iv; type: ADME, organism-based; details: in vivo
[15] = system: Rattus norvegicus; test: Unbound intrinsic clearance in Sprague-Dawley rat at 5 mg/kg, iv; type: ADME, organism-based; details: in vivo
[16] = system: U-87 MG; details: Homo sapiens; U-87MG ATCC
Description: Antitumor activity against human U87MG cells xenografted in CB17 SCID mouse assessed as tumor growth inhibition

[17] = system: H460LM; details: Homo sapiens
Description: Antitumor activity against human H460LM cells xenografted in CB17 SCID mouse assessed as tumor growth inhibition

[18] = molecular target: Cytochrome P450 3A4 (Homo sapiens, UniProt P08684); test: Inhibition of CYP3A4 (unknown origin); type: ADME
[19] = system: Rattus norvegicus; test: Unbound intrinsic clearance in Sprague-Dawley rat at 1 mg/kg, iv; type: ADME, organism-based; details: in vivo
[20] = Oral bioavailability in Sprague-Dawley rat at 1 mg/kg; type: ADME, organism-based; details: in vivo
[21] = Half life in Sprague-Dawley rat at 1 mg/kg, iv; type: ADME, organism-based; details: in vivo
[22] = Plasma clearance in Sprague-Dawley rat at 1 mg/kg, iv; type: ADME, organism-based

Nicotinamide phosphoribosyltransferase, sequence (P43490 whole entry): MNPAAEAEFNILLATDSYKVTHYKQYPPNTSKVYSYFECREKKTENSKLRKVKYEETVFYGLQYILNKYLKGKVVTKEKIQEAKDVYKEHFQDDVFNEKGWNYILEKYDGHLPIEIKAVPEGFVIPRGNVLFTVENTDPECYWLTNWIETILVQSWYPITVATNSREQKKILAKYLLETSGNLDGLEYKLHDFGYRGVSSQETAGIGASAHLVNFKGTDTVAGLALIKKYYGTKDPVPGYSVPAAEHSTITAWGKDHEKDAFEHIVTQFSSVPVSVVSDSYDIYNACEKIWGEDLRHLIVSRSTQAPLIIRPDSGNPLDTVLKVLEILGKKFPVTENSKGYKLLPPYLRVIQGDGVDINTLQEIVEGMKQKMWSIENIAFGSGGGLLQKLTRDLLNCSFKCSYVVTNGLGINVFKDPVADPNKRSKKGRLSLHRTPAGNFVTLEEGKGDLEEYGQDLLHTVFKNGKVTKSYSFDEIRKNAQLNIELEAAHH
Cytochrome P450 3A4, sequence (P08684 whole entry): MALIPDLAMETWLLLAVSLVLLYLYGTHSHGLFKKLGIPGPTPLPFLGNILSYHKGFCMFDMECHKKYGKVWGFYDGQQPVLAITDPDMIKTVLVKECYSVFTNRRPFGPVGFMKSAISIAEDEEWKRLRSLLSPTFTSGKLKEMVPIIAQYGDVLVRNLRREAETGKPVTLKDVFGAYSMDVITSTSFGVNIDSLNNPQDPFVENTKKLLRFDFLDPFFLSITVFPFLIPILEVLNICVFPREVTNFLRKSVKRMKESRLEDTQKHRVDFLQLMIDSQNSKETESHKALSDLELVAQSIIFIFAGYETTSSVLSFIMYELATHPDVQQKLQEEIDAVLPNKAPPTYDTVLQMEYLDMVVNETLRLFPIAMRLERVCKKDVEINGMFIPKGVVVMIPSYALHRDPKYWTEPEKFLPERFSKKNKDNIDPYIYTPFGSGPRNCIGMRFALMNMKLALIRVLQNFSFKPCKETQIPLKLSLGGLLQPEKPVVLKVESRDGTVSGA
Cytochrome P450 2C9, sequence (P11712 whole entry): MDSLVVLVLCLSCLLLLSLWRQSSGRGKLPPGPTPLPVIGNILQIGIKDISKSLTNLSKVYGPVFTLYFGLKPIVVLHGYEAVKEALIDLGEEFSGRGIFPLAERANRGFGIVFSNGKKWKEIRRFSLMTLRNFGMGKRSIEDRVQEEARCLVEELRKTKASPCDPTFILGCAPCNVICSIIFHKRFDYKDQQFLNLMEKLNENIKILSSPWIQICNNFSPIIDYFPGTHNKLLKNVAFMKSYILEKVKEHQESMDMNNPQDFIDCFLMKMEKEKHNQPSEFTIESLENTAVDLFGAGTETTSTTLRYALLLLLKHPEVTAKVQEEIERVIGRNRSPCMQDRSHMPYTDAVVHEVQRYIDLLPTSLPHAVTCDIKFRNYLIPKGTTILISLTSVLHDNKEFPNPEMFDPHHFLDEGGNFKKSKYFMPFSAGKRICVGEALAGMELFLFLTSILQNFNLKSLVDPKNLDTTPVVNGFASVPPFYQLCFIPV

CC1(C(=O)N2CCC(c3ccc(NC(=O)N4Cc5ccccc5C4)cc3)CC2)COC1
Ki [1]: 5.1 nM
CL free [2]: 50 mL/min/kg
CL free [3]: 145 mL/min/kg
IC50 ([4]; Homo sapiens, PC-3, 120 h): 15 nM

O=C(NC[C@@H]1CCOC1)c1ccc(NC(=O)N2Cc3ccccc3C2)cc1
TGI [5]: Active
solubility [6]: 17 µM (≈ 6.21 µg/mL)
IC50 [7]: > 20000 nM
TGI [8]: Active
inhibition in vivo at 15 mg/kg/day [9]: 78%
bioavailability [10]: 59%
TGI [11]: Active
CL free [12]: < 46.7 mL/min/kg
clearance [13]: 4.33 mL/min/kg
half-life [14]: 3 h
IC50 ([4]; pc-3): 56 nM
CL free [15]: 28.3 mL/min/kg
TGI [16]: Active
TGI [17]: Active
IC50 [18]: > 20000 nM

CN(CCC(C)(C)C)C(=O)c1ccc(NC(=O)N2Cc3ccccc3C2)cc1
solubility [6]: < 5 µM
Ki [1]: 160 nM
CL free [2]: 2000 mL/min/kg
CL free [3]: 2170 mL/min/kg
IC50 ([4]; Homo sapiens, PC-3, 120 h): 1100 nM

O=C(Nc1ccc(C2CCN(S(=O)(=O)C3CC3)CC2)cc1)N1Cc2ccc(F)cc2C1
Ki [1]: 3.9 nM
CL free [2]: 58.3 mL/min/kg
CL free [3]: 500 mL/min/kg
IC50 ([4]; Homo sapiens, PC-3, 120 h): 6.5 nM

CC1(C(=O)N2CCC(c3ccc(NC(=O)N4Cc5ccccc5C4)cc3)CC2)CC1
Ki [1]: 4.3 nM
CL free [2]: 56.7 mL/min/kg
CL free [3]: 283 mL/min/kg
IC50 ([4]; Homo sapiens, PC-3, 120 h): 6.6 nM

O=C(Nc1ccc(C2CN(C(=O)c3ccccc3)C2)cc1)N1Cc2ccc(F)cc2C1
Ki [1]: 1.9 nM
CL free [2]: 45 mL/min/kg
CL free [3]: 433 mL/min/kg
IC50 ([4]; Homo sapiens, PC-3, 120 h): 3.9 nM

CC(C)CCC(=O)Nc1ccc(NC(=O)N2Cc3ccccc3C2)cc1
solubility [6]: < 5 µM
Ki [1]: 58 nM
CL free [2]: 60 mL/min/kg
CL free [3]: 783 mL/min/kg
IC50 ([4]; Homo sapiens, PC-3, 120 h): 17 nM

CC(C)(O)CC(=O)N1CCC(c2ccc(NC(=O)N3Cc4ccc(F)cc4C3)cc2)CC1
Ki [1]: 2.5 nM
CL free [2]: 95 mL/min/kg
CL free [3]: 143 mL/min/kg
IC50 ([4]; Homo sapiens, PC-3, 120 h): 3.2 nM

COC(=O)c1ccc(NC(=O)N2Cc3ccccc3C2)cc1
solubility [6]: < 5 µM
Ki [1]: 112 nM
IC50 ([4]; pc-3): 2300 nM

CC(C)CCNC(=O)c1cccc(NC(=O)N2Cc3ccccc3C2)c1
Ki [1]: > 8900 nM
IC50 ([4]; Homo sapiens, PC-3, 120 h): > 12500 nM

CC(C)(C)CCNC(=O)c1ccc(NC(=O)N2Cc3ccccc3C2)cc1
solubility [6]: < 5 µM
CL free [2]: 217 mL/min/kg
CL free [3]: 145 mL/min/kg
IC50 ([4]; pc-3): 21 nM

COc1cc2c(cc1OC)CN(C(=O)Nc1ccc(C(=O)NCCC(C)C)cc1)C2
Ki [1]: > 9000 nM
IC50 ([4]; Homo sapiens, PC-3, 120 h): > 10000 nM

Cc1ccc(NC(=O)N2Cc3ccccc3C2)cc1
solubility [6]: < 5 µM
Ki [1]: 2200 nM
IC50 ([4]; pc-3): > 10000 nM

O=C(NCC1CCOC1)c1ccc(NC(=O)N2Cc3ccccc3C2)cc1 (stereo unspecified)
solubility [6]: < 5 µM
CL free [2]: 26.7 mL/min/kg
CL free [3]: 83 mL/min/kg
IC50 ([4]; pc-3): 68 nM

O=C(/C=C/c1cccnc1)NCCCCC1CCN(C(=O)c2ccccc2)CC1 [DAPORINAD]
solubility [6]: < 5 µM
CL free [2]: 91.7 mL/min/kg
CL free [3]: 258 mL/min/kg
IC50 ([4]; Homo sapiens, PC-3, 120 h): 5.7 nM

CC(C)C[C@@H](CO)NC(=O)c1ccc(NC(=O)N2Cc3ccccc3C2)cc1
solubility [6]: < 5 µM
CL free [2]: 56.7 mL/min/kg
CL free [3]: 115 mL/min/kg
IC50 ([4]; Homo sapiens, PC-3, 120 h): 66 nM

O=C(Nc1ccc(C2CCN(C(=O)[C@@H]3CCCO3)CC2)cc1)N1Cc2ccc(Cl)cc2C1
Ki [1]: 1.7 nM
CL free [2]: 217 mL/min/kg
CL free [3]: 583 mL/min/kg
IC50 ([4]; Homo sapiens, PC-3, 120 h): 7.9 nM

CC(C)CCNS(=O)(=O)c1ccc(NC(=O)N2Cc3ccccc3C2)cc1
solubility [6]: < 5 µM
CL free [2]: 433 mL/min/kg
CL free [3]: 4420 mL/min/kg
IC50 ([4]; Homo sapiens, PC-3, 120 h): > 10000 nM

CC(C)CCNC(=O)c1ccc(NC(=O)N2Cc3ccccc3C2)cc1
solubility [6]: < 5 µM
CL free [2]: 250 mL/min/kg
CL free [3]: 817 mL/min/kg
IC50 ([4]; pc-3): 38 nM

O=C(Nc1ccc(S(=O)(=O)c2ccccc2)cc1)N1Cc2ccccc2C1
Ki [1]: 21 nM
CL free [2]: 73.3 mL/min/kg
CL free [3]: 367 mL/min/kg
IC50 ([4]; Homo sapiens, PC-3, 120 h): 30 nM

CN1CCC(C(=O)N2CCC(c3ccc(NC(=O)N4Cc5ccc(F)cc5C4)cc3)CC2)CC1
Ki [1]: 9.4 nM
CL free [2]: 41.7 mL/min/kg
CL free [3]: 267 mL/min/kg
IC50 ([4]; Homo sapiens, PC-3, 120 h): 5.6 nM

O=C(NCc1ccccc1)c1ccc(NC(=O)N2Cc3ccccc3C2)cc1
solubility [6]: < 5 µM
CL free [2]: 58.3 mL/min/kg
CL free [3]: 350 mL/min/kg
IC50 ([4]; Homo sapiens, PC-3, 120 h): 68 nM

CN1CCN(C(C)(C)C(=O)N2CCC(c3ccc(NC(=O)N4Cc5ccccc5C4)cc3)CC2)CC1
Ki [1]: 1.5 nM
CL free [2]: 733 mL/min/kg
CL free [3]: 1470 mL/min/kg
IC50 ([4]; Homo sapiens, PC-3, 120 h): 2.3 nM

O=C(NCC1CCCOC1)c1ccc(NC(=O)N2Cc3ccccc3C2)cc1 (stereo unspecified)
solubility [6]: < 5 µM
CL free [2]: 30 mL/min/kg
CL free [3]: 75 mL/min/kg
IC50 ([4]; Homo sapiens, PC-3, 120 h): 17 nM

CC(C)(O)CC(=O)N1CCC(c2ccc(NC(=O)N3Cc4ccccc4C3)cc2)CC1
CL free [19]: 28.3 mL/min/kg
bioavailability [20]: 100%
solubility [6]: 3.3 µM (≈ 1.39 µg/mL)
half-life [21]: 4.8 h
IC50 [7]: 8400 nM
inhibition in vivo at 15 mg/kg/day [9]: 90%
Ki [1]: 5.6 nM
CL free [2]: 58.3 mL/min/kg
CL free [3]: 300 mL/min/kg
CL free [12]: < 56.7 mL/min/kg
IC50 ([4]; Homo sapiens, PC-3, 120 h): 24 nM
clearance [22]: 1.83 mL/min/kg
IC50 [18]: 16000 nM
